The melting point is the temperature, or range, at which the solid turns liquid.

The record followed here is patent US8933101B2, “Thia(dia)zoles as fast dissociating dopamine 2 receptor antagonists” (Janssen Pharmaceutica NV, priority 2007, dated 2015).

Where a name gives a salt, the structure may show the parent alone.

With `CN(c1nnc(C(F)(F)F)s1)C1CCN(Cc2cccc(F)c2)CC1`, the melting point stood at 80.5 °C. Under `Fc1ccc(CN2CCC(Nc3nc(C(F)(F)F)cs3)CC2)cc1F` (as salt: hydrochloride) stands 238 °C.

Compound `N#Cc1nnc(NC2CCN(Cc3ccc(F)c(F)c3)CC2)s1` had a melting point of 199.4 °C. The figure for `FC(F)(F)Oc1cccc(CN2CCC(Nc3nnc(C(F)(F)F)s3)CC2)c1` is 116.3 °C. Consider `Fc1cc(CN2CCC(Nc3nnc(C(F)(F)F)s3)CC2)ccc1C(F)(F)F`, for which the melting point was found to be 130.2 °C. The figure for `CN(c1nnc(C(F)(F)F)s1)C1CCN(Cc2ccc(F)cc2)CC1` is 85.8 °C; for `N#Cc1nnc(NC2CCN(Cc3cc(F)c(F)c(F)c3)CC2)s1` it is 211.3 °C.
